Reference: the supplement of paper PMC10307832

What was measured:
Assay in all cases: relative viability (nuclei count vs DMSO), 5 days (fraction); higher = more cells survive
Ruxolitinib + Pemetrexed = compound: N#CC[C@H](C1CCCC1)n1cc(-c2ncnc3[nH]ccc23)cn1 [Ruxolitinib] + Nc1nc2[nH]cc(CCc3ccc(C(=O)N[C@@H](CCC(=O)O)C(=O)O)cc3)c2c(=O)[nH]1 [Pemetrexed] (partner 0.2 µM)
Procedure, shortened: (§1)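 Relative viability is defined as nuclei in treated wells over nuclei in vehicle wells. Duplicate plates were run and medians reported. Lung cancer cell lines in 1536-well plates were dosed by pin tool one day after seeding, with one drug or with a fixed anchor-drug dose plus five library-drug doses (not always all listed) in √10 steps, and nuclei were counted after 5 days.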

Vismodegib + Bortezomib = compound: CS(=O)(=O)c1ccc(C(=O)Nc2ccc(Cl)c(-c3ccccn3)c2)c(Cl)c1 [Vismodegib] + CC(C)C[C@H](NC(=O)[C@H](Cc1ccccc1)NC(=O)c1cnccn1)B(O)O [Bortezomib] (partner 0.002 µM)
Procedure, shortened: as §1

Vismodegib + Tozasertib = compound: CS(=O)(=O)c1ccc(C(=O)Nc2ccc(Cl)c(-c3ccccn3)c2)c(Cl)c1 [Vismodegib] + Cc1cc(Nc2cc(N3CCN(C)CC3)nc(Sc3ccc(NC(=O)C4CC4)cc3)n2)n[nH]1 [Tozasertib] (partner 0.1 µM)
Procedure, shortened: as §1

Ruxolitinib + Navitoclax = compound: N#CC[C@H](C1CCCC1)n1cc(-c2ncnc3[nH]ccc23)cn1 [Ruxolitinib] + CC1(C)CCC(c2ccc(Cl)cc2)=C(CN2CCN(c3ccc(C(=O)NS(=O)(=O)c4ccc(N[C@H](CCN5CCOCC5)CSc5ccccc5)c(S(=O)(=O)C(F)(F)F)c4)cc3)CC2)C1 [Navitoclax] (partner 0.5 µM)
Procedure, shortened: as §1

Cell Line | relative viability (Ruxolitinib + Pemetrexed; first compound 0.08 µM) | relative viability (Ruxolitinib + Pemetrexed; first compound 0.253 µM) | relative viability (Ruxolitinib + Pemetrexed; first compound 0.8 µM) | relative viability (Ruxolitinib + Pemetrexed; first compound 2.53 µM) | relative viability (Ruxolitinib + Pemetrexed; first compound 8 µM) | relative viability (Vismodegib + Bortezomib; first compound 0.08 µM) | relative viability (Vismodegib + Bortezomib; first compound 0.253 µM) | relative viability (Vismodegib + Bortezomib; first compound 0.8 µM) | relative viability (Vismodegib + Bortezomib; first compound 2.53 µM) | relative viability (Vismodegib + Bortezomib; first compound 8 µM) | relative viability (Vismodegib + Tozasertib; first compound 0.08 µM) | relative viability (Vismodegib + Tozasertib; first compound 0.253 µM) | relative viability (Vismodegib + Tozasertib; first compound 0.8 µM) | relative viability (Vismodegib + Tozasertib; first compound 2.53 µM) | relative viability (Vismodegib + Tozasertib; first compound 8 µM) | relative viability (Ruxolitinib + Navitoclax; first compound 0.08 µM) | relative viability (Ruxolitinib + Navitoclax; first compound 0.253 µM) | relative viability (Ruxolitinib + Navitoclax; first compound 0.8 µM) | relative viability (Ruxolitinib + Navitoclax; first compound 2.53 µM) | relative viability (Ruxolitinib + Navitoclax; first compound 8 µM)
NCI-H2228 | 0.332 | 0.342 | 0.318 | 0.324 | 0.321 | 1.08 | 0.954 | 0.958 | 0.835 | 0.965 | 0.218 | 0.277 | 0.23 | 0.217 | 0.265 | 0.925 | 0.987 | 1.02 | 0.921 | 0.712
LOU-NH91 | 0.376 | 0.338 | 0.378 | 0.354 | 0.353 | 0.507 | 0.537 | 0.471 | 0.389 | 0.498 | 0.622 | 0.688 | 0.644 | 0.656 | 0.675 | 0.487 | 0.688 | 0.909 | 0.585 | 0.688
NCI-H2023 | 0.264 | 0.271 | 0.23 | 0.233 | 0.23 | 0.906 | 0.889 | 0.915 | 1.02 | 0.943 | 0.356 | 0.341 | 0.348 | 0.315 | 0.227 | 1 | 0.94 | 1.08 | 0.939 | 0.855
HARA | 0.206 | 0.27 | 0.225 | 0.221 | 0.229 | 1.08 | 1.1 | 1.11 | 1.19 | 1.17 | 0.124 | 0.126 | 0.112 | 0.097 | 0.0937 | 1.14 | 1.11 | 1.17 | 1.14 | 1.25
RERF-LC-KJ | 0.471 | 0.485 | 0.505 | 0.465 | 0.456 | 1.06 | 1.07 | 1.18 | 1.15 | 1.02 | 0.495 | 0.532 | 0.413 | 0.506 | 0.449 | 1.05 | 0.963 | 1.59 | 1.15 | 0.657
NCI-H2009 | 1.03 | 1.03 | 1.03 | 0.936 | 0.745 | 0.947 | 0.986 | 0.976 | 0.967 | 1.04 | 0.727 | 0.674 | 0.834 | 0.817 | 0.733 | 1.2 | 1.2 | 1.16 | 0.961 | 0.897
NCI-H2126 | 0.757 | 0.736 | 0.789 | 0.721 | 0.663 | 1.08 | 1.09 | 1.1 | 1.14 | 1.15 | 0.841 | 0.814 | 0.849 | 0.772 | 0.794 | 0.82 | 0.725 | 0.781 | 0.8 | 0.689
NCI-H460 | 0.0622 | 0.0628 | 0.0588 | 0.0628 | 0.063 | 1.13 | 0.929 | 1.19 | 0.998 | 1.2 | 0.55 | 0.447 | 0.377 | 0.367 | 0.298 | 1.17 | 1.34 | 1.34 | 1.13 | 0.656
NCI-H647 | 0.177 | 0.189 | 0.199 | 0.162 | 0.117 | 1.01 | 0.925 | 1.12 | 1.05 | 1.1 | 0.253 | 0.205 | 0.265 | 0.188 | 0.227 | – | 0.995 | 1.27 | 0.855 | 0.989
NCI-H23 | 0.779 | 0.787 | 0.755 | 0.708 | 0.564 | 1.16 | 1.01 | 0.931 | 0.986 | 0.944 | 0.362 | 0.425 | 0.386 | 0.297 | 0.301 | 0.716 | 1.12 | 0.978 | 0.801 | 0.929
H3255 | 0.506 | 0.553 | 0.569 | 0.528 | 0.473 | 0.855 | 0.632 | 0.596 | 0.762 | 0.753 | 0.524 | 0.55 | 0.623 | 0.606 | 0.563 | 0.248 | 0.393 | 0.474 | 0.423 | 0.425
NCI-H1651 | 0.578 | 0.597 | 0.593 | 0.599 | 0.643 | 1 | 0.936 | 0.953 | 0.619 | 0.882 | 0.617 | 0.704 | 0.643 | 0.604 | 0.704 | 0.978 | 1.08 | 1.11 | 1.36 | 0.996
NCI-H1734 | 0.399 | 0.366 | 0.437 | 0.369 | 0.456 | 0.89 | 0.835 | 0.949 | 0.858 | 1.03 | 0.249 | 0.281 | 0.267 | 0.263 | 0.263 | 0.749 | 0.698 | 0.899 | 0.724 | 0.785
CAL-12T | 1.15 | 1.18 | 1.22 | 0.993 | 0.802 | – | 0.882 | 0.91 | 0.935 | 0.999 | 0.301 | 0.28 | 0.321 | 0.35 | 0.328 | 1.1 | 1.23 | 1.14 | 1.15 | 1.07
NCI-H1993 | 0.662 | 0.525 | 0.618 | 0.633 | 0.621 | 1.03 | 1.24 | 0.983 | 1.05 | 1.08 | 0.529 | 0.548 | 0.584 | 0.632 | 0.593 | 0.858 | 0.869 | 0.998 | 1.02 | 0.932
NCI-H1755 | 0.459 | 0.448 | 0.414 | 0.407 | 0.42 | 0.903 | 0.947 | 1.05 | 0.966 | 1.01 | 0.568 | 0.575 | 0.534 | 0.556 | 0.524 | 0.919 | 0.925 | 1 | 0.844 | 0.732
